According to US20220033355A1, “CRYSTAL FORM A OF 2-(2, 5-DIOXOPYRROLIDIN-1YL) ETHYL METHYL FUMARATE, PREPARATION METHOD THEREFOR AND USE THEREOF” (SHENZHEN RENTAI PHARMATECH LTD., priority 2019, published 2022):
Where a name gives a salt, the structure may show the parent alone.

Tests used:
Format in all cases: physicochemical
[1] = High-temperature stability of the crystal form (XRPD comparison); conditions: 60° C.
Description: (§1) Method: Cu target Ka, voltage: 40 KV, current: 40 mA, test angle: 3-45°, scanning step: 0.02, exposure time: 0.2S, slit width of light pipe: 2 mm, Dtex detector.
(2) High-temperature stability: the test sample is placed at a temperature of 60° C. for 5 days and 10 days, respectively, to test the stability of the crystal form.
(2) High-temperature stability: by referring to the same method of high-temperature stability test for crystal A, the test sample is placed at a temperature of 60° C. for 5 days to test the stability of the crystal form, which is compared with XRPD pattern of the crystal form I on day 0.

[2] = High-humidity stability 2 of the crystal form (XRPD comparison); conditions: 75% RH, 40° C.
Description: as §1
(4) High-humidity stability 2: the test sample is placed in an environment having a humidity of 75% RH and a temperature of 40° C. for 5 days and 10 days, respectively, to test the stability of the crystal form.
(4) High-humidity stability 2: by referring to the same method of high-humidity stability test 2 for crystal A, the test sample is placed in an environment having a humidity of 75% RH and a temperature of 40° C. for 5 days to test the stability of the crystal form, which are compared with XRPD pattern of the crystal form I on day 0.

[3] = Light stability of the crystal form (XRPD comparison); conditions: 25° C., 4500 Lux
Description: as §1
(1) Light stability: the test sample is placed in an environment having a temperature of 25° C. and a light condition of 4500 Lux for 5 days and 10 days, respectively, to test the stability of the crystal form.
(1) Light stability: by referring to the same method of light stability test for crystal A, the test sample is placed in an environment having a temperature of 25° C. and a light condition of 4500 Lux for 5 days to test the stability of the crystal form, which is compared with XRPD pattern of the crystal form I on day 0.

[4] = High-humidity stability 1 of the crystal form (XRPD comparison); conditions: 92.5% RH, 25° C.
Description: as §1
(3) High-humidity stability 1: the test sample is placed in an environment having a humidity of 92.5% RH and a temperature of 25° C. for 5 days and 10 days, respectively, to test the stability of the crystal form.
(3) High-humidity stability 1: by referring to the same method of high-humidity stability test 1 for crystal A, the test sample is placed in an environment having a humidity of 92.5% RH and a temperature of 25° C. for 5 days to test the stability of the crystal form, which are compared with XRPD pattern of the crystal form I on day 0.

[5] = Dynamic vapor sorption (DVS) hygroscopicity study; conditions: 25° C., RH stepped up from RH 0 to RH 90% at RH 10% per step, 10 min per step, when RH 90% is completed
Description: Model: DVS intrinsic (SMS, British); Method: 25° C., relative humidity is stepped up at a rate of 10%, the judgment standard is change in moisture content is <0.02% over a 10-minute period. Dynamic vapor sorption (DVS) experiment are performed for the crystal form I of Example 1 and the crystal form A prepared in Example 2 to obtain DVS curves under the following conditions: the temperature is 25° C., the relative humidity (RH) is stepped up from RH 0 to RH 90% at a rate of RH 10% per step, with 10 min for each step to reach equilibrium.

[6] = 5 days, XRPD compared with day 0

SMILES | high-temperature stability of the crystal form ([1]; 5 days and 10 days, XRPD) | high-humidity stability 2 of the crystal form ([2]; 5 days and 10 days, XRPD) | light stability of the crystal form ([3]; 5 days and 10 days, XRPD) | high-humidity stability 1 of the crystal form ([4]; 5 days and 10 days, XRPD) | weight increase due to moisture absorption [5] [%] | high-temperature stability of the crystal form [1, 6] | high-humidity stability 2 of the crystal form [2, 6] | light stability of the crystal form [3, 6] | high-humidity stability 1 of the crystal form [4, 6]
COC(=O)/C=C/C(=O)OCCN1C(=O)CCC1=O [crystal form A, 2-(2,5-dioxopyrrolidin-1yl)ethyl methyl fumarate] | good high-temperature stability | good high-humidity stability | good light stability | good high-humidity stability | – | – | – | – | –
COC(=O)/C=C/C(=O)OCCN1C(=O)CCC1=O [crystal form I, 2-(2,5-dioxopyrrolidin-1yl)ethyl methyl fumarate] | – | – | – | – | 0.642 | unstable under high temperatures and easily transforms into crystal form A | unstable under high humidity and easily transforms into crystal form A | unstable under lights and easily transforms into crystal form A | unstable under high humidity and easily transforms into crystal form A
